{"source": "patent US20190008795A1", "about": "“COMPOSITIONS FOR TOPICAL APPLICATION OF COMPOUNDS” (Illustris Pharmaceuticals, Inc., priority 2016, published 2019)", "key": {"[1]": {"assay": "Transdermal delivery of a macromolecule compound (summary)", "assay_type": "in vitro ADME", "design": "key: 0: on a scale using +symbols to reflect extent of the effect; −: on a scale using +symbols to reflect extent of the effect; +/−: on a scale using +symbols to reflect extent of the effect; on a scale using +symbols to reflect extent of the effect; ++: on a scale using +symbols to reflect extent of the effect; +++: on a scale using +symbols to reflect extent of the effect; ++++: on a scale using +symbols to reflect extent of the effect; +++++: on a scale using +symbols to reflect extent of the effect", "details": "peptide or protein, hyaluronic acid decoy", "text": "(§1) It will be appreciated that Examples 1-6, 11, 12 illustrate hyaluronic acid as a decoy molecule exemplary of the decoy molecules contemplated herein. As described above, decoy molecules of collagen and elastin are contemplated, where the molecular weight of the decoy molecule can be selected to tailor the delivery of the agent of interest across the skin. The table below summarizes the effect of the decoy molecule (using the hyaluronic acid as exemplary) on the transdermal delivery of a small molecule compound (e.g, one with a molecular weight of less than about 850 Da), on the transdermal delivery of a macromolecule compound (e.g, a peptide or a protein), on the extent of penetration of the decoy molecule into skin upon topical application, and on the enhancement of water content in skin by the decoy molecule, on a scale using +symbols to reflect extent of the effect."}, "[2]": {"assay": "Penetration of the decoy molecule into skin upon topical application (summary)", "assay_type": "in vitro ADME", "design": "key: 0: on a scale using +symbols to reflect extent of the effect; −: on a scale using +symbols to reflect extent of the effect; +/−: on a scale using +symbols to reflect extent of the effect; on a scale using +symbols to reflect extent of the effect; ++: on a scale using +symbols to reflect extent of the effect; +++: on a scale using +symbols to reflect extent of the effect; ++++: on a scale using +symbols to reflect extent of the effect; +++++: on a scale using +symbols to reflect extent of the effect", "text": "as §1"}, "[3]": {"assay": "Transdermal delivery of a small molecule compound (summary)", "assay_type": "in vitro ADME", "design": "key: 0: on a scale using +symbols to reflect extent of the effect; −: on a scale using +symbols to reflect extent of the effect; +/−: on a scale using +symbols to reflect extent of the effect; on a scale using +symbols to reflect extent of the effect; ++: on a scale using +symbols to reflect extent of the effect; +++: on a scale using +symbols to reflect extent of the effect; ++++: on a scale using +symbols to reflect extent of the effect; +++++: on a scale using +symbols to reflect extent of the effect", "details": "compound of less than about 850 Da, hyaluronic acid decoy", "text": "as §1"}, "[4]": {"details": "1 wt. % minocycline, 1% hyaluronic acid decoy or none, p=0.0004", "experimental": "Delivery of minocycline into porcine skin in vitro was measured and compared to delivery of minocycline from a composition of minocycline in saline (i.e, with no decoy molecule). Compositions were prepared containing of 1 wt. % minocycline and 1% of decoy molecule of hyaluronic acid with three molecular weights: 10,000 Da mean, 20,000 Da mean, and 30,000 Da mean. A control formulation containing 1 wt % minocycline in saline was also prepared"}, "[5]": {"assay": "Gabapentin delivery into porcine skin grafts, UPLC-mass spectrometer", "assay_type": "in vitro ADME", "details": "1% gabapentin in saline, 12-20 hours", "experimental": "Delivery of gabapentin with hyaluronic acid into skin in vitro was measured using porcine skin grafts, and compared to delivery of gabapentin from a composition of gabapentin in saline (with no decoy molecule). Groups consisted of A) 1% gabapentin in saline (n=8 replicates), B) 1% gabapentin plus 1% sodium hyaluronate decoy of 3,000 Da in saline (n=8 replicates) or C) saline alone (n=8 replicates) in donor cells.\nBriefly, tissues were incubated overnight in 0.5 mL of 50% acetonitrile in deionized water at 55° C. with agitation. Calibration standards and tissue extraction solvent samples were diluted 10× in deionized water before analysis. Diluted standards and samples were analyzed at 1 μL injection volumes. Concentrations were reported as μg/g of gabapentin in tissue."}, "[6]": {"details": "listed as disaccharide (400 Da)"}}}
{"compound": "hyaluronic acid [Hyaluronic Acid 100,000 Da]", "values": [{"measurement": "Delivery of a Macromolecule Compound", "setting": "[1]; listed as 100,000 Da", "value": 0}, {"measurement": "Hyaluronic Acid Skin Penetration", "setting": "[2]; listed as 100,000 Da", "value": "+/−"}, {"measurement": "Delivery of a Small Molecule Compound", "setting": "[3]; listed as 100,000 Da", "value": 0}]}
{"compound": "hyaluronic acid [Hyaluronic Acid 20,000 Da]", "values": [{"measurement": "Delivery of a Macromolecule Compound", "setting": "[1]; listed as 20,000 Da", "value": "+++++"}, {"measurement": "Hyaluronic Acid Skin Penetration", "setting": "[2]; listed as 20,000 Da", "value": "++"}, {"measurement": "Delivery of a Small Molecule Compound", "setting": "[3]; listed as 20,000 Da", "value": "++++"}]}
{"compound": "hyaluronic acid [Hyaluronic Acid 5000 Da]", "values": [{"measurement": "Delivery of a Macromolecule Compound", "setting": "[1]; listed as 5000 Da", "value": "+"}, {"measurement": "Hyaluronic Acid Skin Penetration", "setting": "[2]; listed as 5000 Da", "value": "+++"}, {"measurement": "Delivery of a Small Molecule Compound", "setting": "[3]; listed as 5000 Da", "value": "+"}]}
{"compound": "hyaluronic acid [Hyaluronic Acid 10,000 Da]", "values": [{"measurement": "Delivery of a Macromolecule Compound", "setting": "[1]; listed as 10,000 Da", "value": "++"}, {"measurement": "Hyaluronic Acid Skin Penetration", "setting": "[2]; listed as 10,000 Da", "value": "++"}, {"measurement": "Delivery of a Small Molecule Compound", "setting": "[3]; listed as 10,000 Da", "value": "+++"}]}
{"compound": "hyaluronic acid [Hyaluronic Acid 100,000 Da degraded]", "values": [{"measurement": "Delivery of a Macromolecule Compound", "setting": "[1]; listed as 100,000 Da degraded", "value": "+++"}, {"measurement": "Hyaluronic Acid Skin Penetration", "setting": "[2]; listed as 100,000 Da degraded", "value": "+++"}, {"measurement": "Delivery of a Small Molecule Compound", "setting": "[3]; listed as 100,000 Da degraded", "value": "++++"}]}
{"compound": "hyaluronic acid [Hyaluronic Acid degraded 5000 Da]", "values": [{"measurement": "Delivery of a Macromolecule Compound", "setting": "[1]; listed as degraded 5000 Da", "value": "−"}, {"measurement": "Hyaluronic Acid Skin Penetration", "setting": "[2]; listed as degraded 5000 Da", "value": "++++"}, {"measurement": "Delivery of a Small Molecule Compound", "setting": "[3]; listed as degraded 5000 Da", "value": "−"}]}
{"compound": "hyaluronic acid [Hyaluronic Acid disaccharide (400 Da)]", "values": [{"measurement": "Delivery of a Macromolecule Compound", "setting": "[1]; [6]", "value": 0}, {"measurement": "Hyaluronic Acid Skin Penetration", "setting": "[2]; [6]", "value": "+++++"}, {"measurement": "Delivery of a Small Molecule Compound", "setting": "[3]; [6]", "value": 0}]}
{"compound": "CN(C)c1ccc(O)c2c1C[C@H]1C[C@H]3[C@H](N(C)C)C(O)=C(C(N)=O)C(=O)[C@@]3(O)C(O)=C1C2=O", "note": "[minocycline]", "values": [{"measurement": "penetration of minocycline into porcine skin", "setting": "[4]", "value": "low native penetration"}]}
{"compound": "NCC1(CC(=O)O)CCCCC1", "note": "[gabapentin alone, gabapentin]", "values": [{"measurement": "gabapentin tissue levels", "setting": "[5]", "value": "0.09 μg of gabapentin per gram of tissue"}]}
{"compound": "hyaluronic acid [Hyaluronic Acid 3000 Da]", "values": [{"measurement": "Delivery of a Macromolecule Compound", "setting": "[1]; listed as 3000 Da", "value": "+"}, {"measurement": "Hyaluronic Acid Skin Penetration", "setting": "[2]; listed as 3000 Da", "value": "++++"}, {"measurement": "Delivery of a Small Molecule Compound", "setting": "[3]; listed as 3000 Da", "value": "+++"}]}
